Measured values reported in ChEMBL document CHEMBL1141714, “Peptidyl epoxides extended in the P' direction as cysteine protease inhibitors: effect on affinity and mechanism of inhibition” (Bioorg Med Chem, 2008).

Legend:
[1] = target: Cathepsin B (Homo sapiens, UniProt P07858); assay: Binding affinity to cathepsin B treated up to 2 hrs at 37degC by Dixon plot
[2] = target: T1, Papain (Carica papaya, UniProt P00784); assay: Binding affinity to Carica papaya papain treated up to 2 hrs at 25 degC by Dixon plot
T1 sequence (P00784 whole entry): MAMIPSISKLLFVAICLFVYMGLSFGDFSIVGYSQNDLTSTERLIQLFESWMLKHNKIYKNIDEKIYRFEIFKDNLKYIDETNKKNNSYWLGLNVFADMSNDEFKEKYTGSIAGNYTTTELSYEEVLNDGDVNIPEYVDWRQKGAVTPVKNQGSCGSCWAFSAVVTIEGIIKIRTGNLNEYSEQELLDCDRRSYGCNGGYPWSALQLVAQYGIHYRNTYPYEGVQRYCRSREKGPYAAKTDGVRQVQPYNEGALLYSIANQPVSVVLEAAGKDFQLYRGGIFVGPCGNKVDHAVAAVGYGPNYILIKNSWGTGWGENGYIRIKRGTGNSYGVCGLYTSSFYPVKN

Row | SMILES | Ki [1] | Ki [2]
1 | O=C(N[C@@H](Cc1ccccc1)C(=O)NCC1CO1)OCc1ccccc1 (stereo partly specified) | 1020 µM | 390 µM
2 | COC(=O)[C@H](C)NC(=O)[C@H](C)NC(=O)C[C@@H]1O[C@H]1CNC(=O)[C@H](Cc1ccccc1)NC(=O)OCc1ccccc1 | 244 µM | 73 µM
3 | COC(=O)[C@H](C)NC(=O)[C@H](C)NC(=O)C[C@H]1O[C@H]1CNC(=O)[C@H](Cc1ccccc1)NC(=O)OCc1ccccc1 | 94 µM | 18 µM
